Consider two molecules from US20210008161A1, “METHODS AND COMPOSITIONS FOR IMPROVED HOMOLOGY DIRECTED REPAIR” (CRISPR THERAPEUTICS AG, priority 2019, published 2021).

The test system of one experiment is HEK293 T cells. Briefly: TIDE analysis of DSB repair at CFTR gene locus. It counts as cell-based, human. Here is the method: The effect of Nu7441 treatment on HDR was also evaluated at the CFTR gene locus in HEK293 T cells. To do so cells were electroporated with RNP comprising Cas9 and a gRNA targeting the CFTR gene locus (SEQ ID NO: 18; sgRNA target sequence identified by SEQ ID NO: 19). 2×10^5 cells were edited with 1 μM Cas9 and 1.5 μM gRNA. The cells were transfected with a ssODN donor (SEQ ID NO: 42). Cells were edited with 100 μM ssODN. The ssODN contains homology arms spanning both sides of the DSB induced by the Cas9-guide and is designed to include 3 additional base pairs (GCA) into the CFTR gene to aid detection of HDR. Cells were also treated with 5 μM Nu7441. Gene correction was assessed by TIDE analysis. TIDE analysis uses a pair of PCR reactions and standard capillary sequencing runs to identify mutations induced at the site of a DSB (see e.g., Brinkman (2014) Nucleic Acids Res 42:e168). The type of mutation induced at the DSB was indicative of the pathway used to repair the DSB. Formation of an indel comprising either an insertion or a deletion of bases was considered due to NHEJ repair; a deletion of 2-3 base pairs was considered due to MMEJ repair; while an insertion of 3 base pairs was considered due to HDR repair. Shown in FIGS. 4A-4B are mutations introduced at the DSB for cells treated with Nu7441 (FIG. 4B) compared to a DMSO negative control (FIG. 4A). […] This reduction in NHEJ repair in the presence of Nu7441 was evaluated with an additional ssODN donor (SEQ ID NO: 41).

The test system of another experiment is hTERT RPE-1 cells. Briefly: HDR insertion of AAV-delivered GFP donor into AAVS1 locus (GFP fluorescence). It counts as cell-based, human. The settings on record: AAV (DJ serotype) GFP donor and mRNA encoding i53, over AAV alone, FIG. 7. Here is the method:
RPE1 cells were lipofected with RNP comprised of Cas9 protein and gRNA targeting the AAVS1 locus (target sequence shown in SEQ ID NO: 3; spacer sequence shown in SEQ ID NO: 4). Cells were edited with 1 μg Cas9 and 1 μg gRNA. Cells were infected with AAV containing homology donor DNA encoding GFP (DJ serotype) as well as mRNA encoding i53 (mRNA ORF shown in SEQ ID NO: 69). […] HDR efficiency was determined by measuring the level of GFP fluorescence in the cells following gene-editing.

In a further experiment the test system is CD34-expressing LT-HSPCs. Briefly: Indel formation at HBB locus by TIDE analysis. It counts as cell-based, human. The procedure:
Editing efficiency at the HBB locus was evaluated by measuring indel formation by TIDE analysis. […] This group had 1.7-fold reduction in INDEL frequency relative to cells treated with RNP+AAV,

Experiment [1] relates to human LT-HSPCs administered to cKit mice. Briefly: Indel formation at HBB locus in mouse bone marrow by TIDE analysis. It counts as in vivo. The settings on record: 16 weeks post engraftment. Here is the method:
NHEJ editing of the HBB locus was also evaluated in mouse bone marrow collected at 16 weeks post engraftment. Indel formation at the site of Cas9/gRNA cutting was evaluated by TIDE analysis in bone marrow samples and compared to indel formation of LT-HSPCs prior to administration.
NHEJ editing of the HBB locus was also evaluated in mouse bone marrow collected at 16 weeks post engraftment. Indel formation at the site of Cas9/gRNA cutting was evaluated by TIDE analysis in bone marrow samples and compared to indel formation of LT-HSPCs prior to administration. Regardless of the method used to edit the LT-HSPCs, indel formation was similar at 16 weeks post-engraftment to the level present prior to administration (FIG. 27).

Experiment [2] has as its system wild-type CD34-expressing LT-HSPCs. Briefly: HDR and INDEL frequency at HBB locus with AAV.323 donor by NGS. It counts as cell-based, human. The source says: The AAV-encoded homology donor used for correction is referred to as “AAV.323” and is identified by sequence in Table 8.
For experiment [3], the system named is CD34-expressing LT-HSPCs derived from human patients with sickle cell disease. Briefly: Hemoglobin expression (HbF, HbA, HbS) by HPLC. It counts as cell-based. Here is the method:
Hemoglobin expressed by edited cells that were differentiated to erythrocytes was assessed. Hemoglobin A (HbA) is composed of 2 alpha-globin and 2 beta-globin units and is the dominant hemoglobin in adult humans. In human carriers of the HBB E6V mutation, a high proportion of total hemoglobin is hemoglobin S (HbS), which is composed of 2 alpha-globin units and 2 beta-globin units with E6V.
Briefly, on day 18 post-editing, 1×10^6 cells were harvested, centrifuged, and washed with PBS. The cells were prepared for HPLC analysis. Hemoglobin variants were quantified in cell samples using reverse-phase HPLC chromatography and gradient elution. […] Thus, high levels of HDR achieved with i53 contribute to normalization of hemoglobin expression products.

The test system is the same in experiment [4]. Briefly: SCD gene correction (E6V to E6) by HDR and INDEL frequency by NGS in patient-derived cells.
Procedure: The effect of i53 on HDR efficiency was evaluated in cells derived from patients with a sickle cell mutation in the HBB gene. Specifically, CD34-expressing LT-HSPCs derived from human patients with sickle cell disease were edited with SpCas9, R02 guide, and AAV.323 encoding a correction to the E6V mutation in the HBB gene.
Briefly, CD34-expressing LT-HSPCs were derived from plerixafor+GCSF-dual mobilized peripheral blood obtained from a human donor with sickle cell disease. The cells were seeded in Phase I media at a cell density of 2×10^5 cells/mL. Cells were cultured at 37° C. under normoxic conditions (i.e., oxygen 20%).
Editing of cells was performed following two days of in vitro culture. Briefly, 5×10^5 cells were electroporated with RNP containing 20 μg SpCas9 and 20 μg R02 sgRNA, AAV.323 at a dose of 10,000 MOI, and 1 μg mRNA encoding i53. The cells were incubated with AAV.323 for 1 hour prior to electroporation. The cells were edited by electroporation with R02+AAV.323+i53 mRNA and compared to control cells edited with R02 only, R02+AAV.323, or cells exposed to electroporation without RNP or AAV editing components (mock EP).
The efficiency of gene correction by HDR repair at the HBB gene locus was evaluated by NGS assay as described in Example 3. Frequency of INDELs at the R02 cut site was evaluated by NGS analysis. […]
[5] abbreviates: either ssODN donor (SEQ ID NO: 41 or 42), FIG. 5.
Where [6] appears, read: day 18 post-editing, compared to mock EP control cells, FIG. 34A.

On to `O=c1cc(N2CCOCC2)oc2c(-c3cccc4c3sc3ccccc34)cccc12` [Nu7441], for which the “HDR repair (+3 base pair insertion) at the DSB” value in the experiment on HEK293 T cells (5 μM Nu7441, ssODN SEQ ID NO: 42, FIG. 4) was “much higher levels”. In the experiment with HEK293 T cells (5 μM Nu7441, ssODN SEQ ID NO: 42, vs DMSO negative control, FIG. 4), the “indel formation (NHEJ repair)” value is reported as “dramatically reduced”. Besides, in the experiment with HEK293 T cells (setting [5]), the HDR repair result is given as “increase” and the “indel formation due to NHEJ repair” value is “decreased levels”.
Take “i53: polypeptide inhibitor of 53BP1 (SEQ ID NO: 70), introduced as an mRNA-encoded protein (ORF SEQ ID NO: 69)”: the HDR efficiency entry in the experiment on hTERT RPE-1 cells is recorded as “increase”. Besides, in the experiment with CD34-expressing LT-HSPCs (CD34+ HSCs contacted with 53BP1 polypeptide inhibitor, summary statement), the “risk of indel formation within the target gene locus” value is reported as “less than 30%”. Besides, the “level of indel formation” value with CD34-expressing LT-HSPCs (RNP+AAV in the presence of i53, FIG. 11) is listed as “lowest”. Besides, in experiment [1] (Example 5, FIG. 20), the “level of indel formation in bone marrow” value is on record as “lowest”. Also, the “level of indel formation in bone marrow” value in experiment [1] (Example 7, FIG. 27) is recorded as “lowest”. The “fold increase in HDR efficiency for incorporation of the AAV.323 gene-edit” value in experiment [2] (1 μg i53 mRNA, day 2 post-editing, compared to R02+AAV.323 only, FIG. 30A) is “approximately 1.5 fold”. The “frequency of INDELs at the R02 cut site” value in experiment [2] (i53 vs R02+AAV.323 only, combination vs i53 only, FIG. 30B) is “decreased”. Further, in experiment [3] (setting [6]), the HbA levels entry is on record as “increased” and the HbS levels entry is “dramatically reduced”. The “decrease in HbS levels” value in experiment [3] (relative to mock EP control cells, FIG. 34B) amounted to 90%. For the same molecule, the “incorporation of the E6V→E6 gene correction” value in experiment [4] (R02 RNP + AAV.323 + 1 μg i53 mRNA, FIG. 32A, 34B) was 66%. The “fold lower frequency of INDELs at the R02 cut site” value in experiment [4] (compared to cells edited with RNP+AAV.323 alone, FIG. 32B) was 1.9 fold.
